Common to all, as to test: Cell growth inhibition assay, breast tumor cell line (Cell Titer Glo)
Common to all, as to type: cell-based

The subject of one assay is HCC1937. The following applies: Homo sapiens, 72 h, HCC1937 (HER2−), 3 days. The procedure:
(§1) Human tumor cell lines from hepatocellular carcinoma (HCC), C3A, Hep3B, HepG2, PLC/PRF/5, SNU182, SNU387, SNU398, SNU423, SNU449 and SNU475 were purchased from the ATCC. Human breast tumor cell lines, HCC2218, HCC1419, BT-474, SK-BR-3, UACC893, JIMT-1, MDA-MB-361, HCC202, MDA-MB-175-VII, HCC1569, HCC1937, HCC38, MDA-MB-157, HCC1954, HCC1500, BT483, KPL-1, SUM225 and ZR-75-1 from ATCC, SUM52 and SUM190 from Asterand, PLC (Detroit Mich.), were cultured in RPMI 1640 medium containing 10% FBS; SKBR3-W13 and BT-474-J4 cultured in RPMI 1640 medium containing 10% FBS and 1 μM lapatinib; KPL4 line was kindly provided by Dr Junichi Kurebayashi (Kawasaki Medical School, Okayama, Japan) and cultured in DMEM containing 5% FBS. JIMT-1 from European Collection of Cell Cultures (UK), is a line derived from a patient clinically resistant to trastuzumab (Herceptin®). SK-BR-3-W13 is a single cell clone isolated by a cloning cylinder after a single treatment of SK-BR-3 cells with 0.5 μM lapatinib. BT-474-J4 is a single cell clone derived from a pool of BT-474 cells that were selected to grow in lapatinib to a concentration of 3 μM.
(§2) Cells were seeded in a 96-well tissue culture plate (NUNC 136102) of RPMI medium containing 10% FBS at 500-2,000 cells per well. Approximately 24 hours after plating, cells were exposed to ten, two-fold or three-fold serial dilutions of either Compound A or B or the combination of the two agents at a 2:1 molar ratio (Compounds A and B respectively). In some cases, cells were grown in RPMI media containing 10% FBS and in the presence or absence of 2 ng/mL hepatocyte growth factor (HGF). Cells were incubated in the presence of compounds for 3 days. ATP levels were determined by adding Cell Titer Glo® (Promega) according to the manufacturer's protocol. Briefly, Cell Titer Glo® was added to each plate, incubated for 20 minutes then luminescent signal was read on the SpectraMax L plate reader with a 0.5 sec integration time. All assays were run at least in duplicate.
(§3) Inhibition of cell growth was estimated after treatment with compound or combination of compounds for three days and comparing the signal to cells treated with vehicle (DMSO). Cell growth was calculated relative to vehicle (DMSO) treated control wells. Concentration of compound that inhibits 50% of control cell growth (IC50) was back-interpolated when y=50% of DMSO treated control wells using nonlinear regression with the equation: […]
(§4) where A is the minimum response (ymin), B is the maximum response (Ymax), C is the inflection point of the curve (EC50) and D is the Hill coefficient.
(§5) Combination effects on potency were evaluated using the Combination Index (CI) and Excess Over Highest Single Agent (EHOSA) methods.
(§6) DNA Copy number data on the HER2 gene was collected for all breast cancer cell lines using the Affymetrix 500K chip (Affymetrix Inc, Sunnyvale, Calif.). Briefly DNA was extracted from each line, digested with the restriction enzyme Nsp or Sty, ligated to an adaptor and amplified by PCR. After PCR, DNA was fragmented, labeled, denatured, and hybridized to the Affymetrix 500K chip. Upon completion of hybridization, each assay was washed and stained. Image data were acquired. Similarly collected data from a panel 10 diploid non-tumorigenic lymphoblastic cell lines were used to calculate DNA copy number. All ‘SNP Chip’ images ('CEL files'), were extracted, read and normalized using the dChip software package (Lin et al. 2004. Bioinformatics. 20:1233-40). SNP-wise ‘copy-number ratios’ (log2 scale) were calculated for all cancer cell lines using the lymphoblastic reference panel and analyzed by circular binary segmentation to reduce noise (Olshen et al. 2004. Biostatistics. 5:557-72). Cell lines with log2 ratios of HER2>0.65 were considered HER2+.

For the next assay, the system named is MDA-MB-175-VII. To be noted: Homo sapiens, 72 h, MDA-MB-175-VII (HER2−), 3 days. The protocol:
as §1, §2, §3, §4, §5, §6

A further assay deals with MDA-MB-361. The following applies: Homo sapiens, 72 h, MDA-MB-361 (HER2+), 3 days. The procedure:
as §1, §2, §3, §4, §5, §6

The next assay concerns HCC2218. To be noted: Homo sapiens, 72 h, HCC2218 (HER2+), 3 days. The protocol: as §1, §2, §3, §4, §5, §6
The subject of the next assay is HCC1954. The following applies: Homo sapiens, 72 h, HCC1954 (HER2+), 3 days. The protocol:
as §1, §2, §3, §4, §5, §6

Another assay has as its system BT474. To be noted: Homo sapiens, BT-474, 72 h, BT474 (HER2+), 3 days. The protocol: as §1, §2, §3, §4, §5, §6
The test system of a further assay is KPL4. To be noted: Homo sapiens, 72 h, KPL4 (HER2+), 3 days. The protocol: as §1, §2, §3, §4, §5, §6
The next assay relates to ZR-75-1. To be noted: Homo sapiens, 72 h, ZR-75-1 (HER2−), 3 days. The procedure:
as §1, §2, §3, §4, §5, §6

Another assay concerns BT474-J4. To be noted: Homo sapiens, 72 h, BT474-J4 (HER2+), 3 days. The protocol:
as §1, §2, §3, §4, §5, §6

The subject of another assay is SUM225. The following applies: Homo sapiens, 72 h, SUM225 (HER2+), 3 days. The protocol: as §1, §2, §3, §4, §5, §6
For the next assay, the system named is HCC1569. To be noted: Homo sapiens, 72 h, HCC1569 (HER2−), 3 days. The procedure: as §1, §2, §3, §4, §5, §6
In the next assay the test system is JIMT-1. To be noted: Homo sapiens, 72 h, JIMT-1 (HER2+), 3 days. The protocol:
as §1, §2, §3, §4, §5, §6

The subject of a further assay is KPL1. The following applies: Homo sapiens, KPL-1, 72 h, KPL1 (HER2−), 3 days. The procedure:
as §1, §2, §3, §4, §5, §6

[1] abbreviates: read-out: Single agent IC50, Compound B.
Setting [2] is: read-out: Single agent IC50, Compound A.

We go through two compounds from patent publication US20120245180A1, “COMBINATION” (GlaxoSmithKline LLC, priority 2009, published 2012).

Where two headings read alike, the source gives them in different places.

Regarding `COc1ncc(-c2ccc3nccc(-c4ccnnc4)c3c2)cc1NS(=O)(=O)c1ccc(F)cc1F` [Compound B, 2,4-difluoro-N-{2-(methyloxy)-5-[4-(4-pyridazinyl)-6-quinolinyl]-3-pyridinyl}benzenesulfonamide], the IC50 in the assay with HCC1937 (setting [1]) came to 0.114 ± 0.063 µM; in the assay on MDA-MB-175-VII (setting [1]), 0.007 ± 0.001 µM; in the assay with MDA-MB-361 (setting [1]), 0.009 ± 0.002 µM; in the assay with HCC2218 (setting [1]), 0.018 ± 0.013 µM; with HCC1954 (setting [1]) it was 0.011 ± 0.003 µM; in the assay on BT474 (setting [1]), 0.03 ± 0.007 µM. Moreover, the IC50 in the assay on KPL4 (setting [1]) came out at 0.003 ± 0.001 µM; with ZR-75-1 (setting [1]) it was 0.006 ± 0.001 µM; in the assay on BT474-J4 (setting [1]) it was 0.014 ± 0.008 µM; in the assay on SUM225 (setting [1]), 0.013 ± 0.014 µM; with HCC1569 (setting [1]), 0.076 ± 0.042 µM; in the assay on JIMT-1 (setting [1]), 0.028 ± 0.005 µM. Moreover, in the assay on KPL1 (setting [1]), the IC50 came out at 0.008 ± 0.004 µM.

As for `CC(=O)Nc1cccc(-n2c(=O)n(C3CC3)c(=O)c3c(Nc4ccc(I)cc4F)n(C)c(=O)c(C)c32)c1` [Compound A, N-{3-[3-cyclopropyl-5-[(2-fluoro-4-iodophenyl)amino]-6,8-dimethyl-2,4,7-trioxo-3,4,6,7-tetrahydropyrido[4,3-d]pyrimidin-1(2H)-yl]phenyl}acetamide], the IC50 with HCC1937 (setting [2]) was over 1 µM; with MDA-MB-175-VII (setting [2]), 0.099 ± 0.097 µM; with MDA-MB-361 (setting [2]), over 1 µM; in the assay on HCC2218 (setting [2]), over 1 µM; in the assay on HCC1954 (setting [2]), 1.02 ± 0.839 µM; in the assay on BT474 (setting [2]) it was over 1 µM. Moreover, the IC50 with KPL4 (setting [2]), in the assay with ZR-75-1 (setting [2]), in the assay on BT474-J4 (setting [2]), in the assay on SUM225 (setting [2]), with HCC1569 (setting [2]) and with JIMT-1 (setting [2]) was over 1 µM in each case. Besides, in the assay with KPL1 (setting [2]), the IC50 is over 1 µM.
